For experiment [1], the target named is T1, human recombinant ETB receptors (Homo sapiens, UniProt P24530).
T1 construct: expressed in transfected cells; host or cells: CHO cells (microsomal membranes)
T1 sequence (P24530 27-442): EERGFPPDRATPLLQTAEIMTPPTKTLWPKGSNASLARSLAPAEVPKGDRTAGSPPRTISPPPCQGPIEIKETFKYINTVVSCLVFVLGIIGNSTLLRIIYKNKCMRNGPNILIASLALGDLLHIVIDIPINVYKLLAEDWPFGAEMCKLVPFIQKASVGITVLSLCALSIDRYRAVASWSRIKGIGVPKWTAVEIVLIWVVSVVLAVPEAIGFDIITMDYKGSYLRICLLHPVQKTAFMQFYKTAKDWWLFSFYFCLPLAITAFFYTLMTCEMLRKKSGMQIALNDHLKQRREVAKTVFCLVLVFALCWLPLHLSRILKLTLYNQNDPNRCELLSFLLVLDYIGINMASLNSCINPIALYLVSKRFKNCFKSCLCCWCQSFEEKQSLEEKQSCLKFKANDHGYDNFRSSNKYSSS
Description: Inhibition of [125I]ET-1 binding to membranes from CHO cells carrying human ETB receptors. How it is done:
(§1) 1) Inhibition of Endothelin Binding to Membranes from CHO Cells Carrying Human ET Receptors:
(§2) For competition binding studies, membranes of CHO cells expressing human recombinant ETA or ETB receptors were used.
(§3) The assay was performed in 200 uL 50 mM Tris/HCl buffer, pH 7.4, including 25 mM MnCl2, 1 mM EDTA and 0.5% (w/v) BSA in polypropylene microtiter plates. […] After 2 h, the membranes were filtered on filterplates containing GF/C filters (Unifilterplates from Canberra Packard S.A. Zürich, Switzerland). To each well, 50 uL of scintillation cocktail was added (MicroScint 20, Canberra Packard S.A. Zürich, Switzerland) and the filter plates counted in a microplate counter (TopCount, Canberra Packard S.A. Zürich, Switzerland).
(§4) All the test compounds were dissolved, diluted and added in DMSO.

Experiment [2] has as its target T2, human recombinant ETA receptors (Homo sapiens, UniProt P25101).
T2 construct: expressed in transfected cells; host or cells: CHO cells (microsomal membranes)
T2 sequence (P25101 21-427): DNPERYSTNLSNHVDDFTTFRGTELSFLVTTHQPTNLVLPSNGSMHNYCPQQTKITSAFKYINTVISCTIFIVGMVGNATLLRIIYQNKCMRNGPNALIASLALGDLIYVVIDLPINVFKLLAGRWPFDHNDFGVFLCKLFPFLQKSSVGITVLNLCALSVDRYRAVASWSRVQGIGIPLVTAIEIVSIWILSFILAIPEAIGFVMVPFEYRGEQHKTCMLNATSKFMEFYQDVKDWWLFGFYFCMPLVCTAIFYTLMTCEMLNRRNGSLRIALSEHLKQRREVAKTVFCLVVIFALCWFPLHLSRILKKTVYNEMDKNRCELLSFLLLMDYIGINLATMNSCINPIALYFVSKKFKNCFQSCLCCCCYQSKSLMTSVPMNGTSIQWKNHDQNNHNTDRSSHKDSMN
As to the kind of experiment: Inhibition of [125I]ET-1 binding to membranes from CHO cells carrying human ETA receptors. The procedure:
as §1, §2, §3, §4

For orientation: IC50 means the midpoint of a concentration-inhibition curve.

Each structure is given as a SMILES string.
Also: 2.5% DMSO.

As to `CCS(=O)(=O)Nc1ncnc(OCCOc2ncc(Br)cn2)c1-c1ccc(C)cc1` [Example 1, ethanesulfonic acid {6-[2-(5-bromo-pyrimidin-2-yloxy)-ethoxy]-5-p-tolyl-pyrimidin-4-yl}-amide], the IC50 in experiment [1] is more than 1000 nM; in experiment [2], 3.96 nM.

For `CCS(=O)(=O)Nc1ncnc(OCCOc2ncc(SC)cn2)c1-c1ccc(C)cc1` [Example 2, ethanesulfonic acid {6-[2-(5-methylsulfanyl-pyrimidin-2-yloxy)-ethoxy]-5-p-tolyl-pyrimidin-4-yl}-amide], the results for the IC50 in experiment [1] and in experiment [2] were 989 nM and 5.99 nM, respectively.

Regarding `CCS(=O)(=O)Nc1ncnc(OCCOc2ncc(OC)cn2)c1-c1ccc(C)cc1` [Example 3, ethanesulfonic acid {6-[2-(5-methoxy-pyrimidin-2-yloxy)-ethoxy]-5-p-tolyl-pyrimidin-4-yl}-amide], the IC50 in experiment [1] was more than 1000 nM; in experiment [2] it was 38.2 nM.

For the molecule `CCCS(=O)(=O)Nc1ncnc(OCCOc2ncc(Br)cn2)c1-c1ccc(C)cc1` [Example 4, n-propanesulfonic acid {6-[2-(5-bromo-pyrimidin-2-yloxy)-ethoxy]-5-p-tolyl-pyrimidin-4-yl}-amide], the IC50 in experiment [1] was more than 1000 nM; in experiment [2], 6.34 nM.

For the molecule `CCCS(=O)(=O)Nc1ncnc(OCCOc2ncc(SC)cn2)c1-c1ccc(C)cc1` [Example 5, propane-1-sulfonic acid {6-[2-(5-methylsulfanyl-pyrimidin-2-yloxy)-ethoxy]-5-p-tolyo-pyrimidin-4-yl}-amide], the IC50 is more than 1000 nM in experiment [1] and 3.6 nM in experiment [2].

Regarding `CCCS(=O)(=O)Nc1ncnc(OCCOc2ncc(OC)cn2)c1-c1ccc(C)cc1` [Example 6, propane-1-sulfonic acid {6-[2-(5-methoxy-pyrimidin-2-yloxy)-ethoxy]-5-p-tolyl-pyrimidin-4-yl}-amide], the IC50 is more than 1000 nM in experiment [1] and 17.1 nM in experiment [2].

For `CCS(=O)(=O)Nc1nc(-c2ncccn2)nc(OCCOc2ncc(Br)cn2)c1Oc1ccccc1OC` [Example 7, ethanesulfonic acid [6-[2-(5-bromo-pyrimidin-2-yloxy)-ethoxy]-5-(2-methoxy-phenoxy)-[2,2′]bipyrimidinyl-4-yl]-amide], the IC50 in experiment [2] was found to be 16.3 nM.

Take `CCCS(=O)(=O)Nc1nc(-c2ncccn2)nc(OCCOc2ncc(Br)cn2)c1Oc1ccccc1OC` [Example 8]: the IC50 in experiment [2] came out at 11 nM.

Take `CCCS(=O)(=O)Nc1nc(-c2ncccn2)nc(OCCOc2ncc(SC)cn2)c1Oc1ccccc1OC` [Example 9, n-propanesulfonic acid [6-[2-(5-methylsulfanyl-pyrimidin-2-yloxy)-ethoxy]-5-(2-methoxy-phenoxy)-[2,2′]bipyrimidinyl-4-yl]-amide]: the IC50 was found to be 187 nM in experiment [1] and 5.2 nM in experiment [2].

As to `CCCS(=O)(=O)Nc1nc(-c2ncccn2)nc(OCCOc2ncc(OC)cn2)c1Oc1ccccc1OC` [Example 10, n-propanesulfonic acid [6-[2-(5-methoxy-pyrimidin-2-yloxy)-ethoxy]-5-(2-methoxy-phenoxy)-[2,2′]bipyrimidinyl-4-yl]-amide], the IC50 was found to be 689 nM in experiment [1] and 42.6 nM in experiment [2].

As for `CCS(=O)(=O)Nc1nc(-c2ncccn2)nc(OCCOc2ncc(SC)cn2)c1Oc1ccccc1OC` [Example 11, ethanesulfonic acid [6-[2-(5-methylsulfanyl-pyrimidin-2-yloxy)-ethoxy]-5-(2-methoxy-phenoxy)-[2,2′]bipyrimidinyl-4-yl]-amide], the IC50 in experiment [1] came out at 59 nM; in experiment [2] it was 5.3 nM.

On to `CCS(=O)(=O)Nc1nc(-c2ncccn2)nc(OCCOc2ncc(OC)cn2)c1Oc1ccccc1OC` [Example 12, ethanesulfonic acid [6-[2-(5-methoxy-pyrimidin-2-yloxy)-ethoxy]-5-(2-methoxy-phenoxy)-[2,2′]bipyrimidinyl-4-yl]-amide], for which the IC50 was 469 nM in experiment [1] and 59 nM in experiment [2].

On to `COc1ccccc1Oc1c(NS(C)(=O)=O)nc(-c2ncccn2)nc1OCCOc1ncc(Br)cn1` [Example 14], for which the IC50 in experiment [2] was 27 nM.

Take `COc1cnc(OCCOc2nc(-c3ncccn3)nc(NS(C)(=O)=O)c2Oc2ccccc2OC)nc1` [Example 15]: the IC50 in experiment [1] was found to be 729 nM; in experiment [2], 125 nM.

As for `COc1ccccc1Oc1c(NS(C)(=O)=O)nc(-c2ncccn2)nc1OCCOc1ncc(SC)cn1` [Example 16], the IC50 worked out at 79 nM in experiment [1] and 12 nM in experiment [2].

As for `COc1ccccc1Oc1c(NS(C)(=O)=O)ncnc1OCCOc1ncc(Br)cn1` [Example 17], the figures for the IC50 in experiment [1] and in experiment [2] were 599 nM and 33 nM, respectively.

For `COc1cnc(OCCOc2ncnc(NS(C)(=O)=O)c2Oc2ccccc2OC)nc1` [Example 18], the IC50 in experiment [1] is 841 nM; in experiment [2], 205 nM.

Take `COc1ccccc1Oc1c(NS(C)(=O)=O)ncnc1OCCOc1ncc(SC)cn1` [Example 19]: the values for the IC50 in experiment [1] and in experiment [2] were 155 nM and 22 nM, respectively.

For the molecule `COc1ccccc1Oc1c(NS(C)(=O)=O)ncnc1OCCOc1ncc(S(C)(=O)=O)cn1` [Example 20], the figures for the concentration for half-maximal inhibition (IC50) in experiment [1] and in experiment [2] were more than 1000 nM and 81 nM, respectively.

With `CCCCS(=O)(=O)Nc1nc(-c2ncccn2)nc(OCCOc2ncc(Br)cn2)c1Oc1ccccc1OC` [Example 25], the IC50 in experiment [2] was 6.5 nM.

As for `CCCCS(=O)(=O)Nc1nc(-c2ncccn2)nc(OCCOc2ncc(OC)cn2)c1Oc1ccccc1OC` [Example 26], the IC50 was determined as 881 nM in experiment [1] and 19 nM in experiment [2].

On to `CCCCS(=O)(=O)Nc1nc(-c2ncccn2)nc(OCCOc2ncc(SC)cn2)c1Oc1ccccc1OC` [Example 27], for which the IC50 was 153 nM in experiment [1] and 2.8 nM in experiment [2].

Regarding `CCCCS(=O)(=O)Nc1ncnc(OCCOc2ncc(Br)cn2)c1Oc1cccc(OC)c1` [Example 28], the IC50 in experiment [1] amounted to 595 nM; in experiment [2], 2.9 nM.

Consider `CCCCS(=O)(=O)Nc1ncnc(OCCOc2ncc(OC)cn2)c1Oc1cccc(OC)c1` [Example 29], for which the IC50 worked out at 402 nM in experiment [1] and 8.4 nM in experiment [2].

For the molecule `CCCCS(=O)(=O)Nc1ncnc(OCCOc2ncc(SC)cn2)c1Oc1cccc(OC)c1` [Example 30], the IC50 in experiment [1] came to 111 nM; in experiment [2] it was 2.3 nM.

On to `CCCCS(=O)(=O)Nc1ncnc(OCCOc2ncc(S(C)(=O)=O)cn2)c1Oc1cccc(OC)c1` [Example 31], for which the IC50 is 180 nM in experiment [1] and 1.8 nM in experiment [2].

`CCCS(=O)(=O)Nc1ncnc(OCCOc2ncc(Br)cn2)c1Oc1ccccc1OC` [Example 32]: the half-inhibitory concentration (IC50) was more than 1000 nM in experiment [1] and 11 nM in experiment [2].

Take `CCCS(=O)(=O)Nc1ncnc(OCCOc2ncc(OC)cn2)c1Oc1ccccc1OC` [Example 33]: the 50% inhibitory concentration (IC50) in experiment [1] is more than 1000 nM; in experiment [2], 40 nM.

Take `CCCS(=O)(=O)Nc1ncnc(OCCOc2ncc(SC)cn2)c1Oc1ccccc1OC` [Example 34]: the IC50 in experiment [1] is 159 nM; in experiment [2], 6.5 nM.

As to `CCCS(=O)(=O)Nc1ncnc(OCCOc2ncc(S(C)(=O)=O)cn2)c1Oc1ccccc1OC` [Example 35], the values for the IC50 in experiment [1] and in experiment [2] were more than 1000 nM and 11 nM, respectively.

With `CCS(=O)(=O)Nc1ncnc(OCCOc2ncc(Br)cn2)c1Oc1ccccc1OC` [Example 40], the IC50 amounted to 636 nM in experiment [1] and 19 nM in experiment [2].

On to `CCS(=O)(=O)Nc1ncnc(OCCOc2ncc(OC)cn2)c1Oc1ccccc1OC` [Example 41], for which the IC50 in experiment [1] stood at 678 nM; in experiment [2], 28 nM.

`CCS(=O)(=O)Nc1ncnc(OCCOc2ncc(SC)cn2)c1Oc1ccccc1OC` [Example 42]: the IC50 in experiment [1] is 105 nM; in experiment [2], 5.7 nM.

With `Cc1ccc(-c2c(NS(C)(=O)=O)ncnc2OCCOc2ncc(Br)cn2)cc1` [Example 47], the 50% inhibitory concentration (IC50) in experiment [1] was more than 1000 nM; in experiment [2] it was 2.9 nM.

With `COc1cnc(OCCOc2ncnc(NS(C)(=O)=O)c2-c2ccc(C)cc2)nc1` [Example 48], the IC50 in experiment [1] is more than 1000 nM; in experiment [2] it was 23 nM.

For the molecule `CSc1cnc(OCCOc2ncnc(NS(C)(=O)=O)c2-c2ccc(C)cc2)nc1` [Example 49], the values for the IC50 in experiment [1] and in experiment [2] were more than 1000 nM and 2.3 nM, respectively.

In the case of `CCCS(=O)(=O)Nc1ncnc(OCCOc2ncc(Br)cn2)c1-c1ccc(Br)cc1` [Example 70], in experiment [2], the concentration for half-maximal inhibition (IC50) was 0.46 nM.

For `CCCCS(=O)(=O)Nc1ncnc(OCCOc2ncc(Br)cn2)c1-c1ccc(Br)cc1` [Example 81], the IC50 in experiment [2] worked out at 0.54 nM.

Source of the values: patent publication US7323465B2, “Alkansulfonamides as endothelin antagonists” (Actelion Pharmaceuticals Ltd., priority 2002, dated 2008).
